Experimental data from patent US7687482B2, “Bisphosphonate compounds and methods” (The Board of Trustees of the University of Illinois, priority 2006, dated 2010).
Read-outs that look alike come from different tables or passages of the source.

What was measured:
D. discoideum = D. discoideum growth inhibition; format: cell-based, Dictyostelium discoideum
Gammadelta T cell = Gammadelta T cell stimulation; format: cell-based, human
Human FPPS = molecular target: T1, Human FPPS (Homo sapiens, UniProt P14324); test: Human FPPS inhibition; format: biochemical
T1 sequence (P14324 1-419): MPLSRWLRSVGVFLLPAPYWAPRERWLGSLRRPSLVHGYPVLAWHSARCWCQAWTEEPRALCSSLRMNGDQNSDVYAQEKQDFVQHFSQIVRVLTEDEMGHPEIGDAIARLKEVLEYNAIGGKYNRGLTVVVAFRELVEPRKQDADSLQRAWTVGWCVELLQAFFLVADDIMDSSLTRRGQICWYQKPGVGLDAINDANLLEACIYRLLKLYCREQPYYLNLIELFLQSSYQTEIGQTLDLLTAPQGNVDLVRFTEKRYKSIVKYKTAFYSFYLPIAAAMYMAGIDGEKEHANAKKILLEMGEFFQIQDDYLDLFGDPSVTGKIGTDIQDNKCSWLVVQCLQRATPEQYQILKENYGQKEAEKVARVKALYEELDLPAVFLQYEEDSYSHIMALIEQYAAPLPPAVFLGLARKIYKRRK

T. brucei FPPS = T. brucei FPPS (Trypanosoma brucei, UniProt Q57WF1); test: biochemical
T. brucei FPPS, sequence (Q57WF1 entry or part of it): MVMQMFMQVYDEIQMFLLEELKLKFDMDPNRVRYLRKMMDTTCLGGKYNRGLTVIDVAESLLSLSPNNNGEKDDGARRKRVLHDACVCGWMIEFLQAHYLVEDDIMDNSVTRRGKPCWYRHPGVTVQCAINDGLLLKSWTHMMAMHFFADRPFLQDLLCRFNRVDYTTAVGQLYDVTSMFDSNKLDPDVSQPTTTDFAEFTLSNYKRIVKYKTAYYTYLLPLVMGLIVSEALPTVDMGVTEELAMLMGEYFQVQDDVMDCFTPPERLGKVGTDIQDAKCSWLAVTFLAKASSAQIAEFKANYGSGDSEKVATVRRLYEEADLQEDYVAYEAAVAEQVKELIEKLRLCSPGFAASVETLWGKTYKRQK

MCF-7 cell = test: Tumor cell growth inhibition, MCF-7; format: cell-based, human; conditions: breast cancer cell line
Method: (§1) Bisphosphonate compounds were tested regarding tumor cell growth inhibition. […] See Table 1 and FIG. 3 showing dose-response data.

NCI-H460 cell = test: Tumor cell growth inhibition, NCI-H460; format: cell-based, human; conditions: lung cancer cell line
Method: as §1

SF-268 cell = test: Tumor cell growth inhibition, SF-268; format: cell-based, human; conditions: central nervous system (glioblastoma) cell line
Method: as §1

[1] = molecular target: undecaprenyl diphosphate synthase (UPPS) (Escherichia coli, UniProt P60472); test: UPPS inhibition; format: biochemical
undecaprenyl diphosphate synthase (UPPS), sequence (P60472 whole entry): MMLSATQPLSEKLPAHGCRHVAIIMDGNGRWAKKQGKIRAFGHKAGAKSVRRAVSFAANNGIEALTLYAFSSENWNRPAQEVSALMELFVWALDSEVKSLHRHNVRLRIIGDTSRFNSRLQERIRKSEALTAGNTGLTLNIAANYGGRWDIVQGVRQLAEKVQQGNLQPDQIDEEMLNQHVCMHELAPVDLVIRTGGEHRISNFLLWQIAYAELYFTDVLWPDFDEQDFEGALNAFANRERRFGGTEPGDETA
Method: Certain compounds were also tested regarding the ability to inhibit undecaprenyl diphosphate synthase (UPPS). See results in Table 2. […] For example, an antibacterial treatment can include contacting a bacterial cell with a compound of the invention. In an embodiment, a bacterial cell can be, e.g., a Gram negative organism such as E. coli or a Gram positive organism such as Staphylococcus aureus.

E. coli = test: Anti-bacterial activity in E. coli; format: cell-based, Escherichia coli
Excerpt: We considered aspects of mevalonate and non-mevalonate pathway gene regulation.

[2] = Dictyostelium discoideum; read-out: D. discoideum IC50

1-hydroxy-3-(trimethylphosphoniumyl)propylidene-1,1-bisphosphonic acid [Compound 9]
IC50 (D. discoideum; read-out: D. discoideum IC50): 207 µM | EC50 (Gammadelta T cell): 1800 µM | Ki (Human FPPS): 0.0226 µM

NCCC(O)(P(=O)(O)O)P(=O)(O)O [1 (Pamidronate), Pamidronate, reference compound]
IC50 (D. discoideum; [2]): 167 µM

NCCCC(O)(P(=O)(O)O)P(=O)(O)O [2 (alendronate), alendronate, reference compound]
IC50 (D. discoideum; [2]): 32 µM | EC50 (Gammadelta T cell; Homo sapiens, T-cell): 52 µM

O=P(O)(O)C(O)(Cc1cccnc1)P(=O)(O)O [3 (risedronate), risedronate, reference compound]
EC50 (Gammadelta T cell; Homo sapiens, T-cell): 6.2 µM

O=P(O)(O)C(O)(Cn1ccnc1)P(=O)(O)O [4 (zoledronate), zoledronate, reference compound]
IC50 (T. brucei FPPS): 0.32 µM | IC50 (D. discoideum; Dictyostelium discoideum, read-out: D. discoideum IC50): 1.9 µM

O=P(O)(O)C(O)(C[S+]1CCCCC1)P(=O)(O)O [Compound 6, 1-hydroxy-2-(pentamethylenesulfoniumyl)ethylidene-1,1-bisphosphonic acid]
IC50 (T. brucei FPPS; read-out: T. brucei FPPS IC50): 0.4 µM | IC50 (D. discoideum; read-out: D. discoideum IC50): 4.78 µM | EC50 (Gammadelta T cell): 22.1 µM

C[P+](C)(C)CC(O)(P(=O)(O)O)P(=O)(O)O [Compound 7, 1-hydroxy-2-(trimethylphosphoniumyl)ethylidene-1,1-bisphosphonic acid]
IC50 (T. brucei FPPS; read-out: T. brucei FPPS IC50): 2 µM | IC50 (D. discoideum; read-out: D. discoideum IC50): 13.8 µM | EC50 (Gammadelta T cell): 127 µM | Ki (Human FPPS): 0.00818 µM

CC[S+](CCCOc1ccccc1)CCC(O)(P(=O)(O)O)P(=O)(O)O (centres unmarked) [Compound 16, 1-hydroxy-3-(S-ethyl-3-phenoxypropylsulfoniumyl)propylidene-1,1-bisphosphonic acid]
IC50 (D. discoideum; read-out: D. discoideum IC50): 4.23 µM | EC50 (Gammadelta T cell): 199 µM | Ki (Human FPPS): 0.0052 µM

C[S+](CCCc1ccccc1)CC(O)(P(=O)(O)O)P(=O)(O)O (centres unmarked) [Compound 23, 1-hydroxy-2-(S-methyl-3-phenylpropylsulfoniumyl)ethylidene-1,1-bisphosphonic acid]
IC50 (T. brucei FPPS; read-out: T. brucei FPPS IC50): 0.18 µM | IC50 (D. discoideum; read-out: D. discoideum IC50): 1.85 µM | Ki (Human FPPS): 0.00568 µM

O=P(O)(O)C(Cc1ccc(Br)c(Br)c1)P(=O)(O)O [Compound 491, 2-(3,4-Dibromophenyl)ethylidene-1,1-bisphosphonic acid]
IC50 (MCF-7 cell): 533 µM | IC50 (NCI-H460 cell): 446 µM | IC50 (SF-268 cell): 349 µM

CC(C)(C)C(=O)OCOP(=O)(OCOC(=O)C(C)(C)C)C(Cc1ccc(Br)c(Br)c1)P(=O)(OCOC(=O)C(C)(C)C)OCOC(=O)C(C)(C)C [Compound 493, Tetrakis-pivaloyloxymethyl 2-(3,4-dibromophenyl)ethylidene-1,1-bisphosphonate]
IC50 (MCF-7 cell): 0.22 µM | IC50 (NCI-H460 cell): 0.62 µM | IC50 (SF-268 cell): 0.65 µM

CC(C)(C)C(=O)OCOP(=O)(OCOC(=O)C(C)(C)C)C(Cc1ccc(Cl)c(Cl)c1)P(=O)(OCOC(=O)C(C)(C)C)OCOC(=O)C(C)(C)C [Compound 494, Tetrakis-pivaloyloxymethyl 2-(3,4-dichlorophenyl)ethylidene-1,1-bisphosphonate]
IC50 (MCF-7 cell): 0.34 µM | IC50 (NCI-H460 cell): 2.7 µM | IC50 (SF-268 cell): 1.43 µM

CC(C)OC(=O)OCOP(=O)(OCOC(=O)OC(C)C)C(Cc1ccc(Cl)c(Cl)c1)P(=O)(OCOC(=O)OC(C)C)OCOC(=O)OC(C)C [Compound 495, Tetrakis-isopropoxycarboxymethyl 2-(3,4-dichlorophenyl)ethylidene-1,1-bisphosphonate]
IC50 (MCF-7 cell): 1.97 µM | IC50 (NCI-H460 cell): 4.85 µM | IC50 (SF-268 cell): 4.78 µM

O=P(O)(O)C(O)(Cc1cccc(-c2cccc(-c3ccccc3)c2)c1)P(=O)(O)O [Compound 608, 1-Hydroxy-2-[3-(3-phenylphenyl)phenyl]ethylidene-1,1-bisphsophonic acid]
IC50 (MCF-7 cell; Homo sapiens, MCF7): 152 µM | IC50 [1]: 0.61 µM | IC50 (NCI-H460 cell; Homo sapiens, NCI-H460): 140 µM | IC50 (SF-268 cell; Homo sapiens, SF-268): 130 µM

O=P(O)(O)C(O)(CCc1cccc(-c2ccc(-c3ccccc3)cc2)c1)P(=O)(O)O [Compound 618, 1-Hydroxy-3-[3-(4-phenylphenyl)phenyl]propylidene-1,1-bisphosphonic acid]
IC50 (MCF-7 cell): 196 µM | IC50 [1]: 12.5 µM | IC50 (NCI-H460 cell): 132 µM | IC50 (SF-268 cell): 175 µM

O=P(O)(O)C(O)(CCc1cccc(-c2ccccc2-c2ccccc2)c1)P(=O)(O)O [Compound 621, 1-Hydroxy-3-[3-(2-phenylphenyl)phenyl]propylidene-1,1-bisphosphonic acid]
IC50 (MCF-7 cell; Homo sapiens, MCF7): 146 µM | IC50 [1]: 7.51 µM | IC50 (NCI-H460 cell; Homo sapiens, NCI-H460): 133 µM | IC50 (SF-268 cell; Homo sapiens, SF-268): 143 µM

O=P(O)(O)C(O)(CCc1cccc(-c2cccc(-c3ccccc3)c2)c1)P(=O)(O)O [Compound 622, 1-Hydroxy-3-[3-(3-phenylphenyl)phenyl]propylidene-1,1-bisphsophonic acid]
IC50 (MCF-7 cell; Homo sapiens, MCF7): 43.9 µM | IC50 [1]: 2.39 µM | IC50 (NCI-H460 cell; Homo sapiens, NCI-H460): 46.9 µM | IC50 (SF-268 cell; Homo sapiens, SF-268): 44.7 µM

O=P(O)(O)C(O)(Cc1cccc(-c2ccccc2-c2ccccc2)c1)P(=O)(O)O [Compound 623, 1-Hydroxy-2-[3-(2-phenylphenyl)phenyl]ethylidene-1,1-bisphsophonic acid]
IC50 (MCF-7 cell): 92.7 µM | IC50 (NCI-H460 cell): 86.1 µM | IC50 (SF-268 cell): 58 µM

O=P(O)(O)C(O)(Cc1ccc(-c2ccccc2-c2ccccc2)cc1)P(=O)(O)O [Compound 624, 1-Hydroxy-2-[4-(2-phenylphenyl)phenyl]ethylidene-1,1-bisphosphonic acid]
IC50 (MCF-7 cell): 1060 µM | IC50 (NCI-H460 cell): 329 µM | IC50 (SF-268 cell): 475 µM

O=P(O)(O)C(O)(Cc1ccc(-c2cccc(-c3ccccc3)c2)cc1)P(=O)(O)O [Compound 625, 1-Hydroxy-2-[4-(3-phenylphenyl)phenyl]ethylidene-1,1-bisphosphonic acid]
IC50 (MCF-7 cell; Homo sapiens, MCF7): 412 µM | IC50 [1]: 0.89 µM | IC50 (NCI-H460 cell; Homo sapiens, NCI-H460): 413 µM | IC50 (SF-268 cell; Homo sapiens, SF-268): 620 µM

O=P(O)(O)C(O)(c1cccc(-c2cccc(-c3ccccc3)c2)c1)P(=O)(O)O [Compound 640, 1-Hydroxy-[3-(3-phenylphenyl)phenyl]methylene-1,1-bisphsophonic acid]
IC50 (MCF-7 cell; Homo sapiens, MCF7): 310 µM | IC50 [1]: 1.86 µM | IC50 (NCI-H460 cell; Homo sapiens, NCI-H460): 285 µM | IC50 (SF-268 cell; Homo sapiens, SF-268): 303 µM

CC(C)(C)C(=O)OCOP(=O)(OCOC(=O)C(C)(C)C)C(Cc1cccc(-c2cccc(-c3ccccc3)c2)c1)P(=O)(OCOC(=O)C(C)(C)C)OCOC(=O)C(C)(C)C [Compound 647, Tetrakis-pivaloyloxymethyl 2-[3-(3-phenylphenyl)phenyl]ethylidene-1,1-bisphosphonate]
IC50 (MCF-7 cell): 2.62 µM | IC50 (NCI-H460 cell): 1.64 µM | IC50 (SF-268 cell): 2.38 µM

O=CN(O)CCCP(=O)(O)O [fosmidomycin]
anti-bacterial properties (E. coli): anti-bacterial properties

Tetrakis-isopropoxycarboxymethyl 2-(3,4-difluorophenyl)ethylidene-1,1-bisphosphonate [Compound 496]
IC50 (MCF-7 cell): 15.2 µM | IC50 (NCI-H460 cell): 20.1 µM | IC50 (SF-268 cell): 28.3 µM

Tetrakis-isopropoxycarboxymethyl 2-(3-cyanophenyl)ethylidene-1,1-bisphosphonate [Compound 498]
IC50 (MCF-7 cell): 58.6 µM | IC50 (NCI-H460 cell): 22.6 µM | IC50 (SF-268 cell): 7.77 µM
